Experimental data reported in patent US20160296529A1, “AMINOTRIAZOLOPYRIDINE FOR USE IN THE TREATMENT OF INFLAMMATION, AND PHARMACEUTICAL COMPOSITIONS THEREOF” (priority 2012, published 2016).

What was measured:
rat CIA model = assay: CIA model 2 (rat collagen induced arthritis, ankle diameter); assay type: in vivo, Female Lewis rats
Source text: Female Lewis rats (n=76) that weighed 165-194 grams (mean approx. 178 g) on arthritis day 0 were obtained from Charles River Laboratories, Inc., Wilmington, Mass., (ref#393739). Animals were identified by a distinct number at the base of the tail delineating group and animal number.
Upon arrival, animals were housed 4/cage in shoe-box polycarbonate cages and acclimated for 8 days prior to being immunized with type II collagen. No concurrent medications were given.
During the acclimation and study periods, animals were housed in a laboratory environment with temperatures ranging 19-25° […]. and relative humidity of 30%-70%. Automatic timers provided 12 h of light and 12 h of dark. Animals were allowed access ad libitum to food and water.
Acclimated female Lewis rats were anesthetized with Isoflurane and receive subcutaneous/intradermal (SC/ID) injections with 300 μL of Freund's Incomplete Adjuvant (Difco, Detroit, Mich.) containing 2 mg/mL bovine type II collagen (Elastin Products, Owensville, Mo.) at the base of the tail and 2 sites on the back on day −9 and on day −3.
Collagen was prepared by making a 4 mg/mL solution in 0.01N Acetic acid. Equal volumes of collagen and Freund's incomplete adjuvant, were emulsified by hand mixing until a bead of this material holds its form when placed in water. Each animal received 300 μL of the mixture on each occasion divided over 3 subcutaneous sites on back.
On study day 1, onset of arthritis occurred and animals were randomized into treatment groups. After randomization, all cages were labelled with protocol number, group number, and animal numbers. Randomization into each group was done after ankle joint swelling was obviously established and there was good evidence of bilateral disease.
Animals with established type II collagen arthritis were treated daily (QD) by the oral (PO) route for 13 days with vehicle (methylcellulose 0.5% (w/v)), or with active compound(s) prepared in methylcellulose, 0.5% (w/v). Oral dosing was initiated on arthritis day 1 and continued daily (QD at 24 h intervals) through day 13. Animals were terminated on arthritis day 14.
The severity of the arthritis was evaluated by measuring the diameter of both ankles on the animals. Caliper measurements of ankles were taken every day beginning on day 0, with a Digitrix II micrometer (Fowler & NSK). Baseline measurements were taken using one ankle with values rounded to one-thousandth of an inch. Measurements were confirmed as clinically normal (0.260-0.264 in) by comparison with historical values for rats based on a range of body weights. Baseline measurements were then applied to both ankles, and these values remain with the animal so long as the ankle was clinically normal with good definition of all the ankle bones and no evidence of inflammation. Animals were terminated on day 14.

hepatocytes of rat = assay: In vitro metabolism study in hepatocytes, rat; assay type: in vitro ADME; details: rat hepatocyte suspension; 24 h incubation of 100 μM [14C]-Formula II
Procedure: (§1) Hepatocyte stability (Concentrations of the compound according to Formula II and its main metabolites (as % of total radioactivity) after 24 h incubation of 100 μM [^14C]-Compound according to Formula II in hepatocyte suspension of different species)

hepatocytes of dog = assay: In vitro metabolism study in hepatocytes, dog; assay type: in vitro ADME; details: dog hepatocyte suspension; 24 h incubation of 100 μM [14C]-Formula II
Procedure: as §1

hepatocytes of human = assay: In vitro metabolism study in hepatocytes, human; assay type: in vitro ADME; details: human hepatocyte suspension, 24 h incubation of 100 μM [14C]-Formula II
Procedure: as §1

[1] = Single dose pharmacokinetics in animals, mouse; assay type: in vivo, CD1 mice
Procedure: (§2) Pharmacokinetic studies were performed in various animal species dosed with the compound according to Formula II to determine the exposure to the compound according to Formula I as well as its apparent terminal half life (T1/2), when possible.
(§3) Sprague-Dawley rats (male, 200-250 g), CD1 mice (male, 25-30 g), Beagle dogs (male, 9-10 kg), Göttingen minipigs (male, 10-15 kg) and New Zealand White rabbits (male, 3-5 kg) were acclimatized for at least 7 days before treatment and were kept on a 12 hr light/dark cycle (07 h00-19 h00).
(§4) Temperature was maintained at approximately 22° C., and food and water were provided ad libitum.
(§5) The compound according to Formula II was formulated in 0.5% methylcellulose and dosed orally to 3 animals (or 3 mouse/time points) as a single esophageal gavage at dose ranging from 15 to 45 mg/kg under a dosing volume of 5 or 10 mL/kg.
(§6) Blood samples were collected over a 24-h period via the jugular vein (dog, minipig), ear blood vessel (rabbit), cardiac puncture (mouse) or retro-orbital sinus (rat) with lithium heparin as anti-coagulant. Whole blood samples were centrifuged and the resulting plasma samples were stored at −20° C. pending analysis.
(§7) Plasma concentrations of the compound according to Formula I and of the compound according to Formula II were determined by an LC-MS/MS method with a limit of quantification ≦10.0 ng/mL for both Formula I and Formula II for all species.
(§8) Pharmacokinetic parameters were calculated using a statistical analysis package (WinNonLin (Pharsight, Sunnyvale, Calif.: CA 94086, USA).

[2] = Single dose pharmacokinetics in animals, minipig; assay type: in vivo, Göttingen minipigs; details: after Formula II 30 mg/kg oral
Procedure: as §2, §3, §4, §5, §6, §7, §8

Nc1nc2cccc(-c3ccc(CN4CCS(=O)(=O)CC4)cc3)n2n1 [Formula I, 5-[4-(1,1-Dioxothiomorpholin-4-ylmethyl)-phenyl]-[1,2,4]triazolo[1,5-a]pyridin-2-ylamine]
significance to vehicle control (ANOVA) in the CIA second model (rat CIA model; group G: Formula I 25 mg/kg PO QD): mg/kg (*) (((*) = p ≦ 0.05 ANOVA to vehicle control)) | ankle diameter (rat CIA model; group G: Formula I 25 mg/kg PO QD, day 0): 0.2629 inches | ankle diameter (rat CIA model; group G: Formula I 25 mg/kg PO QD, day 1): 0.2717 inches | ankle diameter (rat CIA model; group G: Formula I 25 mg/kg PO QD, day 2): 0.2747 inches | ankle diameter (rat CIA model; group G: Formula I 25 mg/kg PO QD, day 3): 0.2826 inches | ankle diameter (rat CIA model; group G: Formula I 25 mg/kg PO QD, day 4): 0.2892 inches | ankle diameter (rat CIA model; group G: Formula I 25 mg/kg PO QD, day 5): 0.2973 inches | ankle diameter (rat CIA model; group G: Formula I 25 mg/kg PO QD, day 6): 0.3064 inches | ankle diameter (rat CIA model; group G: Formula I 25 mg/kg PO QD, day 7): 0.3108 inches | ankle diameter (rat CIA model; group G: Formula I 25 mg/kg PO QD, day 8): 0.3150 inches | ankle diameter (rat CIA model; group G: Formula I 25 mg/kg PO QD, day 9): 0.3089 inches | ankle diameter (rat CIA model; group G: Formula I 25 mg/kg PO QD, day 10): 0.3046 inches | ankle diameter (rat CIA model; group G: Formula I 25 mg/kg PO QD, day 11): 0.3025 inches | ankle diameter (rat CIA model; group G: Formula I 25 mg/kg PO QD, day 12): 0.3006 inches | ankle diameter (rat CIA model; group G: Formula I 25 mg/kg PO QD, day 13): 0.2996 inches | ankle diameter (rat CIA model; group G: Formula I 25 mg/kg PO QD, day 14): 0.3016 inches | significance to vehicle control (ANOVA) in the CIA second model (rat CIA model; group H: Formula I 50 mg/kg PO QD): mg/kg (*) (((*) = p ≦ 0.05 ANOVA to vehicle control)) | ankle diameter (rat CIA model; group H: Formula I 50 mg/kg PO QD, day 0): 0.2624 inches | ankle diameter (rat CIA model; group H: Formula I 50 mg/kg PO QD, day 1): 0.2718 inches | ankle diameter (rat CIA model; group H: Formula I 50 mg/kg PO QD, day 2): 0.2705 inches | ankle diameter (rat CIA model; group H: Formula I 50 mg/kg PO QD, day 3): 0.2814 inches | ankle diameter (rat CIA model; group H: Formula I 50 mg/kg PO QD, day 4): 0.2886 inches | ankle diameter (rat CIA model; group H: Formula I 50 mg/kg PO QD, day 5): 0.2970 inches | ankle diameter (rat CIA model; group H: Formula I 50 mg/kg PO QD, day 6): 0.3061 inches | ankle diameter (rat CIA model; group H: Formula I 50 mg/kg PO QD, day 7): 0.3110 inches | ankle diameter (rat CIA model; group H: Formula I 50 mg/kg PO QD, day 8): 0.3160 inches | ankle diameter (rat CIA model; group H: Formula I 50 mg/kg PO QD, day 9): 0.3085 inches | ankle diameter (rat CIA model; group H: Formula I 50 mg/kg PO QD, day 10): 0.3032 inches | ankle diameter (rat CIA model; group H: Formula I 50 mg/kg PO QD, day 11): 0.3041 inches | ankle diameter (rat CIA model; group H: Formula I 50 mg/kg PO QD, day 12): 0.3039 inches | ankle diameter (rat CIA model; group H: Formula I 50 mg/kg PO QD, day 13): 0.3014 inches | ankle diameter (rat CIA model; group H: Formula I 50 mg/kg PO QD, day 14): 0.2999 inches | In vitro metabolic profile of Formula II (as % of total radioactivity) (hepatocytes of rat): 12% | In vitro metabolic profile of Formula II (as % of total radioactivity) (hepatocytes of dog): 5.7% | In vitro metabolic profile of Formula II (as % of total radioactivity) (hepatocytes of human): 11% | In vitro metabolic profile of Formula II (as % of total radioactivity) (hepatocytes of human; listed as drawing 11): 11.2% | Ratio I/II of exposure (AUC Formula I : AUC Formula II) ([1]; after Formula II 30 mg/kg oral): 1.56 | AUC ([1]; male, CD1, plasma, after Formula II 30 mg/kg oral, read-out: exposure (expressed as AUC)): 11400 ng·h/mL | half-life ([1]; male, CD1, plasma, oral, upon administration of Formula II, read-out: apparent terminal elimination half-life (converted)): 2.1 h | Ratio I/II of exposure (AUC Formula I : AUC Formula II) [2]: 0.88 | AUC ([2]; male, Göttingen, plasma, read-out: exposure (expressed as AUC)): 16700 ng·h/mL
